Entries after “also recorded” stand apart in the source; their conditions may differ.
What was measured:
Sitophilus zeamais [1] = test: Development of F1 weevils in dissected corn kernels; format: in vivo; details: 250 ug/ml and 2.5 mg/ml
Escherichia coli DH5a = test: Antibiotic coating and penetration of corn kernels (E. coli growth on LB plates); format: cell-based; details: kernels soaked in 2.5 or 0.25 mg/ml
[2] = system: Sitophilus primary endosymbiont (SPE, Candidatus Sodalis pierantonius); test: Sitophilus primary endosymbiont (SPE) level by qPCR in weevils; format: in vivo, Sitophilus zeamais; details: for SPE amount, water-treated weevils versus treated (F0): 18 days of treatment
Protocol: Sitophilus maize weevils (Sitophilus zeamais) were reared on organic corn at 27.5° C. and 70% relative humidity. Prior to being used for weevil rearing, corn was frozen for 7 days and then tempered to 10% humidity with sterile water. […] Ciprofloxacin (Sigma) stock solutions were made at 25 mg/ml in 0.1 N HCl, sterilized by passing through a 0.22 μm syringe filter, and stored at −20° C. For treatments, the appropriate amount of stock solution was diluted in sterile water.
(§1) Weevil survival was monitored daily for 18 days, after which DNA was extracted from the remaining weevils in each group. Briefly, the weevil body was surface sterilized by dipping the weevil into a 6% bleach solution for approximately 5 seconds. Weevils were then rinsed in sterile water and DNA was extracted from each individual aphid using a DNA extraction kit (Qiagen, DNeasy kit) according to manufacturer's instructions. […]; SEQ ID NO: 243). […]; SEQ ID NO: 245) (Login et al., 2011). qPCR was performed using a qPCR amplification ramp of 1.6 degrees C./s and the following conditions: 1) 95° C. for 10 minutes, 2) 95° C. for 15 seconds, 3) 57° C. for 30 seconds, 4) repeat steps 2-3 40×, 5) 95° C. for 15 seconds, 6) 55° C. for 1 minute, 7) ramp change to 0.15 degrees C./s, 8) 95° C. for 1 second. qPCR data was analyzed using analytic (Thermo Fisher Scientific, QuantStudio Design and Analysis) software.

Sitophilus zeamais [3] = test: Emergence of F1 weevils (fecundity); details: 2.5 mg/ml, till day 43
Sitophilus zeamais [4] = test: Weevil survival; format: in vivo; details: 250 μg/ml or 2.5 mg/ml, 18 days
Excerpt: as §1

O=C(O)c1cn(C2CC2)c2cc(N3CCNCC3)c(F)cc2c1=O [ciprofloxacin]
development of F1 weevils (Sitophilus zeamais [1]): delay in development
E. coli growth on plates with entire soaked corn kernels (Escherichia coli DH5a): inhibition of bacterial growth; also recorded: no bacteria grew
SPE amount, water-treated weevils versus treated (F0) ([2]; 250 ug/ml): approximately 4 fold higher
SPE amount, water-treated weevils versus treated (F0) ([2]; 2.5 mg/ml): ~8 fold higher
SPE level, water-treated F1 weevils versus treated ([2]; 2.5 mg/ml, F1 weevils dissected from corn kernels): approximately 4 fold higher
emerged F1 offspring (Sitophilus zeamais [3]): much less offspring
weevil survival (Sitophilus zeamais [4]): all weevils remained alive

Source: patent US12171801B2, “Compositions and related methods for controlling vector-borne diseases” (priority 2017, dated 2024)
